Experimental findings from patent US20050267071A1, “Inhibitors of coronavirus protease and methods of use thereof” (Fulcrum Pharmaceuticals, Inc., priority 2003, published 2005) are described below.

The first experiment addresses T1, SARS-associated coronavirus protease 3CL^pro (Severe acute respiratory syndrome coronavirus, UniProt P0C6U8). Nature of the experiment: biochemical.
`O=C(Oc1ccc(OC(=O)c2cc(B(O)O)cc([N+](=O)[O-])c2)cc1)c1cc(B(O)O)cc([N+](=O)[O-])c1` [FL-078, 3-Borono-5-nitrobenzoic acid 1,4-phenylene ester] yielded an inhibitory constant (Ki) of 6.7 ± 0.9 µM.

As to `O=C(Oc1ccc(OC(=O)c2cc(B(O)O)cc([N+](=O)[O-])c2)c(Cl)c1)c1cc(B(O)O)cc([N+](=O)[O-])c1` [FL-079, 3-Borono-5-nitrobenzoic acid 2-chloro-1,4-phenylene ester], affinity was put at a Ki of 23.7 ± 3 µM.

`O=C(Oc1c(Cl)cccc1Cl)c1cc(B(O)O)cc([N+](=O)[O-])c1` [FL-080, 3-(2,6-Dichlorophenoxycarbonyl)-5-nitrophenylboronic acid] showed a Ki of 62 ± 6 µM.

Turning to `O=C(Oc1ccccc1F)c1cc(B(O)O)cc([N+](=O)[O-])c1` [FL-081, 3-(2-Fluorophenoxycarbonyl)-5-nitrophenylboronic acid], the inhibitory constant (Ki) is 179 ± 70 µM.

Compound `O=C(Oc1c(F)cccc1F)c1cc(B(O)O)cc([N+](=O)[O-])c1` [FL-082, 3-(2,6-Difluorophenoxycarbonyl)-5-nitrophenylboronic acid] gave a Ki of 158 ± 109 µM.

The compound `O=C(O)c1cc(NC(=O)c2ccccc2F)cc(B(O)O)c1` [FL-083, 3-(2-Fluorobenzamido)-5-carboxylphenylboronic acid] had a Ki of 104 ± 38 µM.

Turning to `O=C(Nc1cc(B(O)O)cc([N+](=O)[O-])c1)c1ccccc1F` [FL-084, 3-(2-Fluorobenzamido)-5-nitrophenylboronic acid], the Ki was more than 1000 µM.

Compound `O=C(Oc1ccc(F)cc1)c1cc(B(O)O)cc([N+](=O)[O-])c1` [FL-085, 3-(4-Fluorophenoxycarbonyl)-5-nitrophenylboronic acid] showed a Ki of 95 ± 30 µM.

Take `O=C(OCc1c(Cl)cccc1Cl)c1cc(B(O)O)cc([N+](=O)[O-])c1` [FL-086]: the inhibition constant (Ki) is more than 1000 µM.

On to `O=C(Oc1ccncc1)c1cc(B(O)O)cc([N+](=O)[O-])c1` [FL-087, 3-(4-pyridyloxycarbonyl)-5-nitro-phenylboronic acid], for which the affinity, expressed as Ki, was 66 ± 2 µM.

`Nc1cc(B(O)O)cc(C(=O)O)c1` [FL-088, 3-amino-5-carboxylphenylboronic acid] displayed an inhibition constant Ki of 63 ± 14 µM.

For the compound `O=C(Oc1cccnc1Cl)c1cc(B(O)O)cc([N+](=O)[O-])c1` [FL-089, 3-(2-Chloro-3-pyridyloxycarbonyl)-5-nitrophenylboronic acid], the affinity corresponds to a Ki of 241 ± 85 µM.

The compound `O=C(OC1c2ccccc2CC1Br)c1cc(B(O)O)cc([N+](=O)[O-])c1` (stereo not shown) [FL-090, 3-(2-Bromo-1-indanoxycarbonyl)-5-nitrophenylboronic acid] displayed an inhibition constant Ki of more than 1000 µM.

`O=C(Oc1ccccc1)c1cc(B(O)O)cc([N+](=O)[O-])c1` [FL-092, 3-Phenoxycarbonyl-5-nitrophenylboronic acid]: affinity was put at a Ki of 15.5 ± 6.5 µM.

Consider `O=C(OCc1cccc([N+](=O)[O-])c1)c1cc(B(O)O)cc([N+](=O)[O-])c1` [FL-094, 3-(3-Nitrobenzyloxycarbonyl)-5-nitrophenylboronic acid], for which the Ki came to 39 ± 5 µM.

In the case of `O=C(OCc1cccc(Cl)c1)c1cc(B(O)O)cc([N+](=O)[O-])c1` [FL-095, 3-(3-Chlorobenzyloxycarbonyl)-5-nitrophenylboronic acid], the Ki stood at 91.8 ± 8.8 µM.

`O=C(Oc1ccccc1Br)c1cc(B(O)O)cc([N+](=O)[O-])c1` [FL-096, 3-(2-Bromophenoxycarbonyl)-5-nitro-phenylboronic acid] gave a Ki of 137 ± 61 µM.

With `O=C(OC(C(=O)c1ccccc1)c1ccccc1)c1cc(B(O)O)cc([N+](=O)[O-])c1` (stereo not shown) [FL-097, 3-(1-Benzoyl-1-Phenylmethoxycarbonyl)-5-nitrophenylboronic acid], the Ki came to 153 ± 58 µM.

In turn, `O=C(Oc1cccc(B(O)O)c1)c1c(Cl)cccc1Cl` [FL-099, 3-(2,6-dichlorophenylcarbonyloxy)phenyl boronic acid] returned a Ki of more than 1000 µM.

For `O=C(Oc1cccc(B(O)O)c1)c1cc(B(O)O)cc([N+](=O)[O-])c1` [FL-100, 3-(3-Boronophenoxycarbonyl)-5-nitrophenylboronic acid], the inhibition constant Ki was found to be 190 ± 100 µM.

Compound `O=C(OCc1cccc(B(O)O)c1)c1cc(B(O)O)cc([N+](=O)[O-])c1` [FL-101, 3-(3-Boronobenzyloxycarbonyl)-5-nitrophenylboronic acid] yielded an inhibition constant Ki of 21.7 ± 3.27 µM.

`O=C(Oc1ccc(OC(=O)c2ccc(B(O)O)cc2F)c(Cl)c1)c1ccc(B(O)O)cc1F` [FL-103, 4-Borono-2-fluorobenzoic acid 2-chloro-1,4-phenylene ester] showed an inhibition constant (Ki) of 39.1 ± 2.1 µM. This Ki lies about 1.8-fold higher than the previous one.

Take `O=C(Oc1c(Cl)cccc1[N+](=O)[O-])c1ccc(B(O)O)cc1F` [FL-104, 4-(2-Chloro-6-nitrophenoxycarbonyl)-3-fluorophenylboronic acid]: the affinity corresponds to a Ki of 18 ± 1 µM.

The compound `O=C(Oc1cccc(OC(=O)c2cc(B(O)O)cc([N+](=O)[O-])c2)c1)c1cc(B(O)O)cc([N+](=O)[O-])c1` [FL-106, 3-Borono-5-nitrobenzoic acid 1,3-phenylene ester] had a Ki of 8.5 ± 0.5 µM.

`O=C(Oc1c(Cl)cc(Cl)cc1[N+](=O)[O-])c1cc(B(O)O)cc([N+](=O)[O-])c1` [FL-107, 3-(2,4-Dichloro-6-nitro-phenoxycarbonyl)-5-nitro-phenylboronic acid] had an inhibition constant (Ki) of 6.9 ± 0.3 µM.

`O=C(Nc1cc(B(O)O)cc([N+](=O)[O-])c1)c1c(Cl)cccc1Cl` [FL-108, 3-(2,6-Dichlorobenzamido)-5-nitrophenylboronic acid]: the Ki turned out to be 15 ± 7 µM.

For `O=C(Nc1cc(B(O)O)ccc1Cl)c1c(Cl)cccc1Cl` [FL-109, 3-(2,6-Dichlorobenzamido)-4-chlorophenylboronic acid], the Ki came to 61.5 ± 19.7 µM. This Ki is about 4.1-fold higher than that of the compound before.

`Cc1ccc(B(O)O)cc1NC(=O)c1c(Cl)cccc1Cl` [FL-110, 3-(2,6-Dichlorobenzamido)-4-methylphenylboronic acid] returned a Ki of 37 ± 9.7 µM.

Compound `O=[N+]([O-])c1cc(NS(=O)(=O)c2ccccc2)cc(B(O)O)c1` [FL-114, 3-benzenesulfonamido-5-nitrophenylboronic acid] showed an inhibition constant (Ki) of 49.8 ± 4.4 µM.

For `O=C(Oc1cc(=O)oc2ccccc12)c1cc(B(O)O)cc([N+](=O)[O-])c1` [FL-133, 3-(4-Coumarinoxycarbonyl)-5-nitrophenylboronic acid], the inhibition constant Ki is more than 1000 µM.

`O=C(OCc1ccccc1COC(=O)c1cc(B(O)O)cc([N+](=O)[O-])c1)c1cc(B(O)O)cc([N+](=O)[O-])c1` [FL-136, 3-Borono-5-nitrobenzoic acid 1,2-benzenedimethanol ester]: the affinity, expressed as Ki, was 8 ± 1.7 µM.

`O=C(Oc1c(Cl)cc(Cl)cc1Cl)c1cc(B(O)O)cc([N+](=O)[O-])c1` [FL-139, 3-(2,4,6-Trichlorophenoxycarbonyl)-5-nitro-phenylboronic acid]: the Ki was 73.3 ± 38 µM.

`O=C(Oc1c(Cl)c(Cl)c(OC(=O)c2cc(B(O)O)cc([N+](=O)[O-])c2)c(Cl)c1Cl)c1cc(B(O)O)cc([N+](=O)[O-])c1` [FL-141, 3-Borono-5-nitrobenzoic acid 2,3,5,6-tetrachloro-1,4-phenylene ester] registered a Ki of 39.3 ± 11.7 µM.

Consider `O=C(OCc1cccc2ccccc12)c1cc(B(O)O)cc([N+](=O)[O-])c1` [FL-148, 3-(1-Naphthalenemethoxycarbonyl)-5-nitrophenylboronic acid], for which the affinity corresponds to a Ki of 21.5 ± 8.7 µM.

As for `O=C(OC(c1ccccc1)c1ccccc1)c1cc(B(O)O)cc([N+](=O)[O-])c1` [FL-149, 3-(1,1-Diphenylmethoxycarbonyl)-5-nitrophenylboronic acid], the affinity, expressed as Ki, was 313 ± 170 µM.

In the case of `O=C(Oc1ccc2ccccc2c1)c1cc(B(O)O)cc([N+](=O)[O-])c1` [FL-151, 3-(2-Naphthoxycarbonyl)-5-nitrophenylboronic acid], the affinity, expressed as Ki, was 16.6 ± 6 µM.

As for `O=C(Oc1cccc(B(O)O)c1)c1ccc(C(=O)Oc2cccc(B(O)O)c2)cc1` [FL-156, 1,4-Benzenedicarboxylic acid, di 3-boronophenyl ester], the affinity corresponds to a Ki of 33 ± 9.4 µM. This Ki lies about 2-fold higher than the previous one.

For the compound `O=C(Oc1cc(OC(=O)c2cc(B(O)O)cc([N+](=O)[O-])c2)cc(OC(=O)c2cc(B(O)O)cc([N+](=O)[O-])c2)c1)c1cc(B(O)O)cc([N+](=O)[O-])c1` [FL-164, Tris-(3-borono-5-nitrobenzoic acid), 1,3,5-trihydroxybenzene ester], the Ki was found to be 79.6 ± 14.1 µM.

Take `O=C(OCCN(CCOC(=O)c1cc(B(O)O)cc([N+](=O)[O-])c1)CCOC(=O)c1cc(B(O)O)cc([N+](=O)[O-])c1)c1cc(B(O)O)cc([N+](=O)[O-])c1` [FL-165, Tris(3-borono-5-nitrobenzoic acid), triethanolamine ester]: the Ki is 50.6 ± 21.5 µM.

`O=C(Oc1ccc(OC(=O)c2cc(B(O)O)cc([N+](=O)[O-])c2)c2ccccc12)c1cc(B(O)O)cc([N+](=O)[O-])c1` [FL-167, 3-Borono-5-nitrobenzoic acid, 1,4-dihydroxynaphthalene ester]: the affinity corresponds to a Ki of 10.2 ± 2.2 µM.

Compound `CC(C)(C)c1cc(OC(=O)c2cc(B(O)O)cc([N+](=O)[O-])c2)ccc1OC(=O)c1cc(B(O)O)cc([N+](=O)[O-])c1` [FL-169, 3-Borono-5-nitrobenzoic acid, 2-tert-butyl-1,4-phenylene ester] showed a Ki of 32.7 ± 2.5 µM.

Consider `CCOC(=O)[C@H](Cc1ccccc1)NC(=O)c1cc(B(O)O)cc([N+](=O)[O-])c1` [FL-170, 3-borono-5-nitrobenzoyl-L-phenylalanine ethyl ester], for which the Ki is 10.6 ± 7.5 µM.

As for `O=C(O)c1cc(O)cc(B(O)O)c1` [FL-172, (3-carboxy-5-hydroxyphenyl)boronic acid], the Ki is 3.5 ± 3.9 µM.

`O=C(NCc1ccccc1)c1cccc(B(O)O)c1` [FL-1010, 3-(Benzylcarbamoyl)phenylboronic acid] registered a Ki of 84 ± 45 µM. Compared with the last compound, the Ki is about 24-fold higher.

Compound `O=C(OCc1ccccc1)c1cc(B(O)O)cc([N+](=O)[O-])c1` [FL-1201, 3-Benzyloxycarbonyl-5-nitrophenylboronic acid] returned a Ki of 35.8 ± 11.5 µM.

A further experiment concerns the target T1, SARS-associated coronavirus protease 3CL^pro.
Test: not given
The experiment is classed as binding.
Turning to `O=C(Oc1ccc(OC(=O)c2cc(B(O)O)cc([N+](=O)[O-])c2)cc1)c1cc(B(O)O)cc([N+](=O)[O-])c1` [FL-078, 3-Borono-5-nitrobenzoic acid 1,4-phenylene ester], the “ΔH (Binding Enthalpy of Selected Compounds to 3CL^pro)” value is -4.9 kcal/mol.

As to `O=C(Oc1ccc(OC(=O)c2cc(B(O)O)cc([N+](=O)[O-])c2)c(Cl)c1)c1cc(B(O)O)cc([N+](=O)[O-])c1` [FL-079, 3-Borono-5-nitrobenzoic acid 2-chloro-1,4-phenylene ester], the “ΔH (Binding Enthalpy of Selected Compounds to 3CL^pro)” value was -1.7 kcal/mol.

`O=C(Oc1cccc(OC(=O)c2cc(B(O)O)cc([N+](=O)[O-])c2)c1)c1cc(B(O)O)cc([N+](=O)[O-])c1` [FL-106, 3-Borono-5-nitrobenzoic acid 1,3-phenylene ester]: the “ΔH (Binding Enthalpy of Selected Compounds to 3CL^pro)” value is -5.3 kcal/mol.

For `O=C(OCc1ccccc1COC(=O)c1cc(B(O)O)cc([N+](=O)[O-])c1)c1cc(B(O)O)cc([N+](=O)[O-])c1` [FL-136, 3-Borono-5-nitrobenzoic acid 1,2-benzenedimethanol ester], the “ΔH (Binding Enthalpy of Selected Compounds to 3CL^pro)” value is -9.2 kcal/mol.
